# Experiments:
# human Hsc70 = human Hsc70 (Homo sapiens, UniProt P11142); assay: ELISA binding of biotinylated analogs to immobilized Hsc70
# [1] = system: MDA-MB-231 and MCF7 breast cancer cells; format: cell-based; conditions: for effect of substitution on activity compared to MKT-077: either cell line (MDA-MB-231, MCF7); for EC50: 72 h, read-out: EC50 (span over series and cell lines)
# [2] = system: fibroblasts or normal epithelial cells; conditions: cited from earlier work
# [3] = system: mouse embryonic fibroblasts (MEFs); assay: MTT toxicity assay, mouse embryonic fibroblasts; format: cell-based; conditions: for EC50: Mus musculus, Fibroblast
# [4] = system: MDA-MB-231 and MCF7 cells; assay: p62 oligomerization / autophagic flux; format: cell-based; conditions: 24 h
# MDA-MB-231 cells = assay: Cleavage of caspase-3 and PARP; format: cell-based; conditions: 48 h
# [5] = system: MDA-MB-231 breast cancer cells; assay: MTT anti-proliferative assay, MDA-MB-231 cells; format: cell-based
# MCF7 breast cancer cells = assay: MTT anti-proliferative assay, MCF7 cells; format: cell-based
# human Hsc70, sequence (P11142 whole entry): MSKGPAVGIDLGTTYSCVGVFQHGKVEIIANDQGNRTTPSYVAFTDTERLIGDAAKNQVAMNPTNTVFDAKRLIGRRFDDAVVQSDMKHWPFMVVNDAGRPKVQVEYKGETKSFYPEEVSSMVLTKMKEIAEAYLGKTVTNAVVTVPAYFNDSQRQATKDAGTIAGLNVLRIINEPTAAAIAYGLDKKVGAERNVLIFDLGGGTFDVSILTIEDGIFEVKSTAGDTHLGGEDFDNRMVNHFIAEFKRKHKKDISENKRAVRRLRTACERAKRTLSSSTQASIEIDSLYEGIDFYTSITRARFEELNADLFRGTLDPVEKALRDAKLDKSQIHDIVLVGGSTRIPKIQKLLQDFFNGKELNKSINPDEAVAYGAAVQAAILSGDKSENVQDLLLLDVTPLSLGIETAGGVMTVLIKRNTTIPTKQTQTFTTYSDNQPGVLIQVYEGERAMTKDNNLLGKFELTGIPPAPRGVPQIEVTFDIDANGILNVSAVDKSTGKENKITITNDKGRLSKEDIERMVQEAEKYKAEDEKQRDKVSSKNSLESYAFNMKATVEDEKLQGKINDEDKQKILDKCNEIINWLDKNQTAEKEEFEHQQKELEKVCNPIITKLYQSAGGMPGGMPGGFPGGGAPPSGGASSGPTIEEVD
compound,measurement,setting,value
CCn1c(=O)/c(=C2\Sc3cccc(F)c3N2C)s/c1=C\c1scc[n+]1Cc1ccc(CNC(=O)CCCC[C@@H]2SC[C@@H]3NC(=O)N[C@@H]32)cc1 [compound 32],Kd,human Hsc70,2.4 ± 0.4 µM
C=CCn1c(=O)/c(=C2\Sc3ccccc3N2C)s/c1=C\c1cccc[n+]1C.[Cl-] [compound 17],effect of substitution on activity compared to MKT-077,[1],did not substantially affect activity
CCn1c(=O)/c(=C2\Sc3cc(C(F)(F)F)ccc3N2C)s/c1=C\c1cccc[n+]1C [compound 16],EC50,[1],3 to 30 µM
"CCn1c(=O)/c(=C2\Sc3ccccc3N2C)s/c1=C\c1cccc[n+]1C.[Cl-] [YM-01, reference compound]",toxicity to fibroblasts or normal epithelial cells,[2],not toxic
same,EC50,[3],> 50 µM
CCn1c(=O)/c(=C2\Sc3cccc(F)c3N2C)s/c1=C\c1cccc[n+]1C [compound 1],EC50,[1],2.2 to 18 µM
CCn1c(=O)/c(=C2\Sc3cccc(Cl)c3N2C)s/c1=C\c1cccc[n+]1CCCCCCNC(=O)CCCC[C@@H]1SC[C@@H]2NC(=O)N[C@@H]21 [compound 38],Kd,human Hsc70,7.7 ± 1 µM
CCn1c(=O)/c(=C2\Sc3ccc(OC)cc3N2C)s/c1=C\c1cccc[n+]1C [compound 13],EC50,[1],3 to 30 µM
CCn1c(=O)/c(=C2\Sc3ccccc3N2C)s/c1=C\c1nccc[n+]1C.[Cl-] [compound 23],fold reduction in potency,[1]; compared to MKT-077,approximately 2 fold
CCn1c(=O)/c(=C2\Sc3cccc(Cl)c3N2C)s/c1=C\c1cccc[n+]1C [compound 9],EC50,[1],4.1 to 28 µM
CN1/C(=c2\s/c(=C\c3cccc[n+]3C)n(Cc3ccccc3)c2=O)Sc2ccccc21.[Cl-] [compound 18],effect of substitution on activity compared to MKT-077,[1],did not substantially affect activity
CCn1c(=O)/c(=C2\Sc3ccccc3N2C)s/c1=C\c1cccc[n+]1Cc1ccccc1.[Cl-] [compound 20],fold improvement in activity compared to MKT-077,[1]; MDA-MB-231 and MCF7 cells,approximately 2 fold
CCn1c(=O)/c(=C2\Sc3cc(F)ccc3N2C)s/c1=C\c1cccc[n+]1C [compound 3],EC50,[1],2.2 to 18 µM
CCn1c(=O)/c(=C2\Sc3cc(OC)ccc3N2C)s/c1=C\c1cccc[n+]1C [compound 14],EC50,[1],3 to 30 µM
CCn1c(=O)/c(=C2\Sc3ccc(F)cc3N2C)s/c1=C\c1cccc[n+]1C [compound 2],EC50,[1],2.2 to 18 µM
CCn1c(=O)/c(=C2\Sc3cc(F)ccc3N2C)s/c1=C\c1cccc[n+]1CC [compound 7],EC50,[1],0.8 to 13 µM
CCn1c(=O)/c(=C2\Sc3c(F)cccc3N2C)s/c1=C\c1cccc[n+]1CC [compound 8],EC50,[1],0.8 to 13 µM
CCn1c(=O)/c(=C2\Sc3cc(Cl)ccc3N2C)s/c1=C\c1scc[n+]1Cc1ccccc1.[Cl-] [compound 30],"autophagic flux (p62 oligomerization, p62 monomer)",[4],strongly affected autophagic flux
same,activity against MEFs compared to MKT-077,[3],increased activity against MEFs
same,cleavage of caspase-3 and PARP,MDA-MB-231 cells,activated
CCn1c(=O)/c(=C2\Sc3c(F)cccc3N2C)s/c1=C\c1cccc[n+]1C [compound 4],EC50,[1],2.2 to 18 µM
CCn1c(=O)/c(=C2\Sc3cc(Cl)ccc3N2C)s/c1=C\c1cccc[n+]1C [compound 11],EC50,[1],4.1 to 28 µM
CCn1c(=O)/c(=C2\Sc3cccc(F)c3N2C)s/c1=C\c1scc[n+]1Cc1ccccc1.[Cl-] [compound 27],fold improvement in potency compared to MKT-077,[5],more than 3 fold
same,fold improvement in potency compared to MKT-077,MCF7 breast cancer cells,2 fold
same,activity against MEFs compared to MKT-077,[3],increased activity against MEFs
CCn1c(=O)/c(=C2\Sc3ccc(F)cc3N2C)s/c1=C\c1cccc[n+]1CC [compound 6],EC50,[1],0.8 to 13 µM
CCn1c(=O)/c(=C2\Sc3ccccc3N2C)s/c1=C\c1scc[n+]1C.[Cl-] [compound 24],fold improvement in potency compared to MKT-077,MCF7 breast cancer cells,3 fold
CCn1c(=O)/c(=C2\Sc3c(Cl)cccc3N2C)s/c1=C\c1cccc[n+]1C [compound 12],EC50,[1],4.1 to 28 µM
CCn1c(=O)/c(=C2\Sc3ccccc3N2C)s/c1=C\c1scc[n+]1Cc1ccccc1.[Cl-] [compound 26],fold improvement in potency compared to MKT-077,[5],2 fold
same,fold improvement in potency compared to MKT-077,MCF7 breast cancer cells,4 fold
CCn1c(=O)/c(=C2\Sc3cccc(F)c3N2C)s/c1=C\c1cccc[n+]1CCCCCCNC(=O)CCCC[C@@H]1SC[C@@H]2NC(=O)N[C@@H]21 [compound 34],Kd,human Hsc70,10.9 ± 4.4 µM
CCn1c(=O)/c(=C2\Sc3ccc(C(F)(F)F)cc3N2C)s/c1=C\c1cccc[n+]1C [compound 15],EC50,[1],3 to 30 µM
"CCn1c(=O)/c(=C2\Sc3ccccc3N2C)s/c1=C\c1cccc[n+]1CC.[Cl-] [MKT-077, reference compound]",toxicity to fibroblasts or normal epithelial cells,[2],not toxic
same,EC50,[3],> 50 µM
CCn1c(=O)/c(=C2\Sc3ccc(Cl)cc3N2C)s/c1=C\c1cccc[n+]1C [compound 10],EC50,[1],4.1 to 28 µM
CCn1c(=O)/c(=C2\Sc3cccc(F)c3N2C)s/c1=C\c1cccc[n+]1CC [compound 5],EC50,[1],0.8 to 13 µM

# — PMC3845967 (ACS medicinal chemistry letters, 2013)
